Experimental data reported in paper PMC5732813, “Novel piplartine-containing ruthenium complexes: synthesis, cell growth inhibition, apoptosis induction and ROS production on HCT116 cells” (Oncotarget, 2017).

Experiments:
[1] = test system: BAD KO SV40 MEF (BAD gene knockout immortalized mouse embryonic fibroblast); test: Cytotoxic activity, alamar blue assay, BAD KO SV40 MEF; type: cell-based; conditions: Mus musculus, Fibroblast; BAD KO SV40 MEF, 72 h incubation, alamar blue; read-out: IC50
Text: (§1) HCT116 (human colon carcinoma), HepG2 (human hepatocellular carcinoma), HSC-3 (human oral squamous cell carcinoma), SCC-4 (human oral squamous cell carcinoma), SCC-9 (human oral squamous cell carcinoma), HL-60 (human promyelocytic leukemia), K-562 (human chronic myelogenous leukemia), B16-F10 (murine melanoma), MRC-5 (human lung fibroblast), WT SV40 MEF (wild-type immortalized mouse embryonic fibroblast) and BAD KO SV40 MEF (BAD gene knockout immortalized mouse embryonic fibroblast) cell lines were obtained from the American Type Culture Collection (ATCC, Manassas, VA, USA) and cultured in RPMI-1640 medium (Gibco-BRL, Gaithersburg, MD, USA) with 10% fetal bovine serum (Life, Carlsbad, CA, USA), 2 mM L-glutamine (Vetec Química Fina, Duque de Caxias, RJ, Brazil) and 50 μg/mL gentamycin (Life, Carlsbad, CA, USA). Adherent cells were collected by treatment with 0.25% trypsin EDTA solution (Gibco-BRL, Gaithersburg, MD, USA). All cell lines were cultured in flasks at 37°C in 5% CO2 and sub-cultured every 3-4 days to maintain exponential growth.
(§2) Cell viability was quantified using the alamar blue assay, according to Ahmed et al.. Cells were inserted in 96-well plates for all experiments (7 x 10^4 cells/mL for adherent cells or 3 x 10^5 cells/mL for suspended cells in 100 μL of medium). […] Negative controls received the vehicle that was used for diluting the compounds tested.

[2] = test system: WT SV40 MEF (wild-type immortalized mouse embryonic fibroblast); test: Cytotoxic activity, alamar blue assay, WT SV40 MEF; type: cell-based; conditions: Mus musculus, Fibroblast; WT SV40 MEF, 72 h incubation, alamar blue; read-out: IC50
Text: as §1, §2

[3] = test system: PBMC (human peripheral blood mononuclear cells); test: Cytotoxic activity, alamar blue assay, PBMC non-cancer cells; type: cell-based; conditions: PBMC non-cancer cells, 72h of incubation, alamar blue; with 95% confidence interval; read-out: IC50
Method: PBMCs were washed and resuspended at a concentration of 3 x 10^5 cells/mL in RPMI 1640 medium with 20% fetal bovine serum, 2 mM glutamine and 50 μg/mL gentamycin at 37°C with 5% CO2. […] The Research Ethics Committee of the Oswaldo Cruz Foundation (Salvador, Bahia, Brazil) approved the experimental protocol (# 031019/2013). All participants signed a written informed consent to participate in the study.
as §2

[4] = test system: cancer multicellular spheroids formed from HCT116 cells; test: 3D multicellular spheroids culture, alamar blue assay; type: cell-based, human; conditions: 3D spheroids of HCT116, 72 h treatment, alamar blue; read-out: IC50
Method: as §2
HCT116 cells were cultivated in 3D multicellular spheroids. Briefly, 100 μL of a solution of cells (0.5 x 10^6 cells/mL) were inserted in 96-well plate with a cell-repellent surface (Greiner Bio-One, Kremsmünster, Austria) and cultured in RPMI 1640 medium with 10% fetal bovine serum, 2 mM glutamine, 3% matrigel (BD Biosciences, San Jose, CA, EUA) and 50 μg/mL gentamycin at 37°C with 5% CO2. […] Negative control received the vehicle that was used for diluting the compounds tested. In the end of the experiment, morphological changes were examined by light microscopy (Olympus BX41, Tokyo, Japan) using Image-Pro software (Media Cybernetics, Inc. Silver Spring, USA) and the cell viability was determined by alamar blue assay as described above.

[5] = test system: SCC-4 (human oral squamous cell carcinoma); test: Cytotoxic activity, alamar blue assay, SCC-4; type: cell-based; conditions: SCC-4, 72h of incubation, alamar blue; with 95% confidence interval
Text: as §1, §2

HCT116 cells = test: Internucleosomal DNA fragmentation and cell cycle distribution (DNA content, flow cytometry); type: cell-based, human; conditions: HCT116, 3 μM, mean ± S.E.M.
Method: Cells were harvested in a permeabilization solution containing 0.1% triton X-100 (Sigma Chemical Co. St Louis, MO, USA), 2 μg/mL propidium iodide (Sigma Chemical Co. St Louis, MO, USA), 0.1% sodium citrate and 100 μg/mL RNAse (Sigma Chemical Co. St Louis, MO, USA) and incubated in the dark for 15 min at room temperature.

[6] = test system: HL-60 (human promyelocytic leukemia); test: Cytotoxic activity, alamar blue assay, HL-60; type: cell-based; conditions: HL-60, 72h of incubation, alamar blue; with 95% confidence interval
Text: as §1, §2

[7] = test system: MRC-5 (human lung fibroblast); test: Cytotoxic activity, alamar blue assay, MRC-5 non-cancer cells; type: cell-based; conditions: MRC-5 non-cancer cells, 72h of incubation, alamar blue; with 95% confidence interval; read-out: IC50
Text: as §1, §2

| SMILES | IC50 [1] [µM] | IC50 [2] [µM] | IC50 [3] [µM] | IC50 [4] [µM] | IC50 [5] [µM] | DNA content (%) S (HCT116 cells; 24h) [%] | DNA content (%) S (HCT116 cells; 48h) [%] | IC50 [6] [µM] | IC50 [7] [µM] |
| --- | --- | --- | --- | --- | --- | --- | --- | --- | --- |
| O=c1[nH]cc(F)c(=O)[nH]1 [5-fluorouracil] | 7.3 | 1.7 | – | – | – | – | – | – | – |
| O=C1[O][Pt]2([NH][C@@H]3CCCC[C@H]3[NH]2)[O]C1=O [Oxaliplatin] | – | – | 9.4 | 9.3 | 7.7 | 16.9 ± 2.0 | 17.4 ± 1.9 | 0.6 | 1.3 |
